From ChEMBL document CHEMBL1201862, “PubChem BioAssay data set” (2004)
Calls of active or inactive are those of the source.

What was measured:
[1] = target: T1, RNA-binding protein pos-1 (Caenorhabditis elegans, UniProt G5EF15); assay: inhibitors of POS-1/mex-3 RNA binding, dose response, biochemical, fluorescence polarization (AID 1964);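 note: purified POS-1 fused to maltose binding protein made in E. coli; potency of compounds blocking POS-1 binding to fluorescent RNA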
T1 sequence (G5EF15 whole entry): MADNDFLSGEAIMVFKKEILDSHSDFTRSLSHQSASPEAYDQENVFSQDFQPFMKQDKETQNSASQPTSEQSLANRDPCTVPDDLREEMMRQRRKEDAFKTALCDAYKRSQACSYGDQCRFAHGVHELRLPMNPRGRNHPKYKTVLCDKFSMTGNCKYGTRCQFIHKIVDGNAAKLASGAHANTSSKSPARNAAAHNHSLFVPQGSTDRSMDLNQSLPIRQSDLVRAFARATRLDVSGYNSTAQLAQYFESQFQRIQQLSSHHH

[2] = target: T2, Zinc finger protein mex-5 (Caenorhabditis elegans, UniProt Q9XUB2); assay: MEX-5/TCR-2 RNA interaction inhibitors, dose response, biochemical, C. elegans, fluorescence polarization (AID 1960)
T2 sequence (Q9XUB2 whole entry): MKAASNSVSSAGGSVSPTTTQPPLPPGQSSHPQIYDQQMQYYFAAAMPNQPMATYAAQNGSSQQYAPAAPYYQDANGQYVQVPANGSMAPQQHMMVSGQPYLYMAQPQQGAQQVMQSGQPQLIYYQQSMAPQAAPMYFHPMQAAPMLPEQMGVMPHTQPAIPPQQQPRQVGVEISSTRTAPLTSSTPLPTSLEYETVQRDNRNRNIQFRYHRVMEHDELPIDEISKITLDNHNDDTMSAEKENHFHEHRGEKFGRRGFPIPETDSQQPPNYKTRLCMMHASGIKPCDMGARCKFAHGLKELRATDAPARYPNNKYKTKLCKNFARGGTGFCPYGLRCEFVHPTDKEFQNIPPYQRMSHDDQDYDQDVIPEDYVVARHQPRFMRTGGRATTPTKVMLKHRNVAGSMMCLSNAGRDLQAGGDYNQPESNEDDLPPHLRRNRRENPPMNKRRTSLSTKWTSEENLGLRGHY

[3] = growth suppression of PTEN-null colon cells, dose response, cell-based, HCT116 PTEN knockout (AID 1047); format: functional;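 note: HCT116 colon tumor cells with PTEN knocked out; cells exposed to compound for 60 hours before readout; potency for loss of cell viability measured by luminescence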
[4] = growth suppression of beta-catenin-knockout colon cells, dose response, cell-based, HCT116, human colon tumor (AID 1045); format: functional;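 note: HCT116 colon tumor cells with beta catenin knocked out; cells exposed to compound for 60 hours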
[5] = target: T3, Endoribonuclease toxin MazF (Escherichia coli K-12, UniProt P0AE70); assay: MazF toxin RNase activators, dose response, biochemical, fluorescence, single-stranded RNA substrate, uHTS hits (AID 588481); format: functional
T3 sequence (P0AE70 whole entry): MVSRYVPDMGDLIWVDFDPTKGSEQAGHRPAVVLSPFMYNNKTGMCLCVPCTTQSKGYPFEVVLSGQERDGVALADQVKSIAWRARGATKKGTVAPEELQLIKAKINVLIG

[6] = target: T3, Endoribonuclease toxin MazF; assay: fluorescent RNA oligo signal without MazF, dose response, counter-screen for MazEF activator project, biochemical, fluorescence, single-stranded RNase substrate (AID 588502); format: functional
[7] = cytotoxicity in HEK-293T cells, dose response, cytotoxicity control for TCR NF-kB inhibitor project, luminescence, T-cell screen hits (AID 489026); format: functional, cell-based;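 note: cells exposed to compound about 14 hours before the viability readout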
[8] = target: Voltage-dependent T-type calcium channel subunit alpha-1H (Homo sapiens, UniProt O95180); format: functional;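 note: channel activity triggered by adding a high calcium stimulation buffer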
Chain of Voltage-dependent T-type calcium channel subunit alpha-1H (O95180 whole entry): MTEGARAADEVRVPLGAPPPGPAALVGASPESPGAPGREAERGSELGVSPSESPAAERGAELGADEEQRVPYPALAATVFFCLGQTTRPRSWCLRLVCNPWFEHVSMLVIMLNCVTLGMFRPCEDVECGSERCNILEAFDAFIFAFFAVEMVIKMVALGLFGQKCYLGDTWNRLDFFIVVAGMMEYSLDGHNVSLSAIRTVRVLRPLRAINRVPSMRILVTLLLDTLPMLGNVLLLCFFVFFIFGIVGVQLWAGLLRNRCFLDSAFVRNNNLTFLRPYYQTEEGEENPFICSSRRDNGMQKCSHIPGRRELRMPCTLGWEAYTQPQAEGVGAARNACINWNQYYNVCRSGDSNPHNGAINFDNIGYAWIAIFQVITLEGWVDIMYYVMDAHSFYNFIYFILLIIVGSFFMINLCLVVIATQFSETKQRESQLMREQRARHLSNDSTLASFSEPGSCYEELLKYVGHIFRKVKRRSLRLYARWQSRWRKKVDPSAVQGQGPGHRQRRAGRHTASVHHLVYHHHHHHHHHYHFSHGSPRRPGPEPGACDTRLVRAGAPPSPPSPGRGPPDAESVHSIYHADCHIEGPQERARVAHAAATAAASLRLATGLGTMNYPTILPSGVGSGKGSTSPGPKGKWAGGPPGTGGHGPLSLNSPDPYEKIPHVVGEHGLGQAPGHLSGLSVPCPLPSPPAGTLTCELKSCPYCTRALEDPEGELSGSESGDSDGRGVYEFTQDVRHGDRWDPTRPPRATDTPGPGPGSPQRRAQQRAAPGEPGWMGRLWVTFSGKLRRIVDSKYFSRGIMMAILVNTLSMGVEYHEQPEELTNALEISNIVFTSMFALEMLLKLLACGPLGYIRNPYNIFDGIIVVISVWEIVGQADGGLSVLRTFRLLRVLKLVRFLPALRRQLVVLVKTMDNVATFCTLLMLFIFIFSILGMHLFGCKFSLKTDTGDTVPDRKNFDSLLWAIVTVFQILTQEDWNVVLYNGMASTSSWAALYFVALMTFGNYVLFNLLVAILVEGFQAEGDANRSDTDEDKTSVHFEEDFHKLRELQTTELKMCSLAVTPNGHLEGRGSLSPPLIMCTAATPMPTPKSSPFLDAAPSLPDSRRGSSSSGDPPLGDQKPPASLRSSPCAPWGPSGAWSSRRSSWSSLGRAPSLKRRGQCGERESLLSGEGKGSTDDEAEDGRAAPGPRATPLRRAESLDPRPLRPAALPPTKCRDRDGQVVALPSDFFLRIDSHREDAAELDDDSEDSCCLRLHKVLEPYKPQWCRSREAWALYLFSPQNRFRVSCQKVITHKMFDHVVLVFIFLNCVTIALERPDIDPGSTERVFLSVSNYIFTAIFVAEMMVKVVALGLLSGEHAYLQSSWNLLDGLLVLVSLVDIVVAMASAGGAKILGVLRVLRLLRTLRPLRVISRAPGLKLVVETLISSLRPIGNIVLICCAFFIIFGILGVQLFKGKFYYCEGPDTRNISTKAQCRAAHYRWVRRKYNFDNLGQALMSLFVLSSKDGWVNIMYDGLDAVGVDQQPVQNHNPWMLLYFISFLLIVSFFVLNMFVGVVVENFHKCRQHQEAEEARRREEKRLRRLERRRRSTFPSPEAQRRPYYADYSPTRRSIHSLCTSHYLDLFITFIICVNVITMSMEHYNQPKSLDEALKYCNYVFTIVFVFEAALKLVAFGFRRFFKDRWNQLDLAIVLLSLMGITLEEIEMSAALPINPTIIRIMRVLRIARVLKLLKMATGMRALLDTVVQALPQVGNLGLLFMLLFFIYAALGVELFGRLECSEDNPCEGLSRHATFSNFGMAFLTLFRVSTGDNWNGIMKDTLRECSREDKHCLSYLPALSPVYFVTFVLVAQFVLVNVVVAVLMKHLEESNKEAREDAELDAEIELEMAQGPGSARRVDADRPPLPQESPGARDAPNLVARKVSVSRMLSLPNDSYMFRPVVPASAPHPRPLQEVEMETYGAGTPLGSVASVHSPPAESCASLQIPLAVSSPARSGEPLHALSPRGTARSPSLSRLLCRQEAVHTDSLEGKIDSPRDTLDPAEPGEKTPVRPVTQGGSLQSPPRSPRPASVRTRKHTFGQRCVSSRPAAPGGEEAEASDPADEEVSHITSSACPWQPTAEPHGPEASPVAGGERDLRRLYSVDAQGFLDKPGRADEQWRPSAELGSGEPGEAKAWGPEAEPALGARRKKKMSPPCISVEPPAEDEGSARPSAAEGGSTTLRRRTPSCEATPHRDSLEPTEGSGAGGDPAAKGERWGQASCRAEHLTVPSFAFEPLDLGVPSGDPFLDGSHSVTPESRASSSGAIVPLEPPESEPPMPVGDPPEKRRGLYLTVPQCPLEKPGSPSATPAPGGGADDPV

[9] = target: Induced myeloid leukemia cell differentiation protein Mcl-1 (Homo sapiens, UniProt Q07820); format: functional
Chain of Induced myeloid leukemia cell differentiation protein Mcl-1 (Q07820 whole entry): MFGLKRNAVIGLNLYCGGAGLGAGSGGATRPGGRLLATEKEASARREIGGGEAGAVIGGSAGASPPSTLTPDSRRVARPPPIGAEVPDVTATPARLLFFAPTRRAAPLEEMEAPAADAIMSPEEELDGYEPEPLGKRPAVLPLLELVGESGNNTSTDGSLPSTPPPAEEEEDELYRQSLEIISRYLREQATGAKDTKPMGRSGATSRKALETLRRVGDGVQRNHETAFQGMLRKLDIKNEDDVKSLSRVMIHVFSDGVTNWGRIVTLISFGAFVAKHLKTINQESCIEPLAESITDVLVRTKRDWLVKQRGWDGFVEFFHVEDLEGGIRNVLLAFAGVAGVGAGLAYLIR

[10] = target: Cytochrome P450 2C9 (Homo sapiens, UniProt P11712)
Chain of Cytochrome P450 2C9 (P11712 whole entry): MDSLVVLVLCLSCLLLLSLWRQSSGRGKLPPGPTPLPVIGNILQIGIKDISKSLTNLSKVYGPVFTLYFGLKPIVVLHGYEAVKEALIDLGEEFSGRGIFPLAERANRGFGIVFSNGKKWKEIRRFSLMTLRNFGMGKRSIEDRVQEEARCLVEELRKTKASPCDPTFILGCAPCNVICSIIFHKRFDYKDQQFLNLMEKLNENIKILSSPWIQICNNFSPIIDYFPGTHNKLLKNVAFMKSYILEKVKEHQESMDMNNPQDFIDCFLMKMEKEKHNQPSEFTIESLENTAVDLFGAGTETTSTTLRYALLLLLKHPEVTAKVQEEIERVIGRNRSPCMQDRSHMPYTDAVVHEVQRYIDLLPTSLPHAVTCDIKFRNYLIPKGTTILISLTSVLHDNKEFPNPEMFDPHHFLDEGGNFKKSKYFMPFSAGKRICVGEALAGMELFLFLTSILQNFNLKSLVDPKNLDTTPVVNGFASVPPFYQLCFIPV

[11] = cytotoxicity in HPDE-C7 cells, cell-based, fluorescence, HTS (AID 430); format: functional; settings: Homo sapiens
[12] = cytotoxicity in KRAS-transformed pancreatic duct cells, primary screen, cell-based, fluorescence, HTS (AID 431); format: functional; settings: Homo sapiens;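 note: cell line used: HPDE-C7K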
[13] = target: T4, Cytochrome P450 1A2 (Homo sapiens, UniProt P05177);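 note: PubChem cytochrome P450 panel assay, CYP1A2 panel member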
T4 sequence (P05177 whole entry): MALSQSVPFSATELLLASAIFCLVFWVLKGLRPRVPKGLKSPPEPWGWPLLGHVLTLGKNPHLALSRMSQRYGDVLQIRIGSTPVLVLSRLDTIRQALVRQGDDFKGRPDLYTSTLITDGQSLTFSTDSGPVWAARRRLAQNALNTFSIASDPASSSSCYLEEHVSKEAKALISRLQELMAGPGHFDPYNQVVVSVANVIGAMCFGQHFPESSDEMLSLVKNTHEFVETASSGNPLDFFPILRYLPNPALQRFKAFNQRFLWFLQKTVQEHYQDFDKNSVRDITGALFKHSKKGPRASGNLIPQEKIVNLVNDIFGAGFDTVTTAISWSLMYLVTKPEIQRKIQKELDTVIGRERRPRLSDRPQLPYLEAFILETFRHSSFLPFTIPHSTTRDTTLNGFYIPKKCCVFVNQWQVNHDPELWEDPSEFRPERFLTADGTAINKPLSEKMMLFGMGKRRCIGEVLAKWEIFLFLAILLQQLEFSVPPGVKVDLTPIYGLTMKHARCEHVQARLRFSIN

[14] = target: T5, Leucine aminopeptidase (Plasmodium falciparum 3D7, UniProt Q8IL11); assay: P. falciparum M17LAP inhibitors, primary screen, biochemical, fluorogenic H-Leu-NHMec substrate, 1536-well (AID 1619); format: functional
T5 sequence (Q8IL11 whole entry): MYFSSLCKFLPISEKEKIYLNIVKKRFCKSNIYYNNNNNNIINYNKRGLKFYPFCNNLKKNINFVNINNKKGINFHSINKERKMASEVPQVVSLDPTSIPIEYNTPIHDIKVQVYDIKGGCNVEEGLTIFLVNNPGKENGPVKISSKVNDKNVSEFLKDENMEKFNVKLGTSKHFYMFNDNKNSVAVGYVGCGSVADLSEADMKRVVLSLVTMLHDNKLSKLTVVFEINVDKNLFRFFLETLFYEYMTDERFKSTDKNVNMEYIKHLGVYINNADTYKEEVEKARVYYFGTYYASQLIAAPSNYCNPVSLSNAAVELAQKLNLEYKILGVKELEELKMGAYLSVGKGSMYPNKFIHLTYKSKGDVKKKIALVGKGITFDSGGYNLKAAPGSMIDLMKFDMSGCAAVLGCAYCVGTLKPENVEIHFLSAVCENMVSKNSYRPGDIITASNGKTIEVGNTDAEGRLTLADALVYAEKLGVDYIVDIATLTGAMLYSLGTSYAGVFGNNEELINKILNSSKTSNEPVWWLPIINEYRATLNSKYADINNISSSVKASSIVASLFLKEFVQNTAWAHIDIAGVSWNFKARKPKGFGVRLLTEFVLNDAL

[15] = target: Genome polyprotein (dengue virus type 2, UniProt P29990); assay: Dengue-2 NS5 methyltransferase inhibitors, primary screen, biochemical, confirmation dose response (AID 588689); format: functional
Chain of Genome polyprotein (P29990 2492-3391 limits assumed): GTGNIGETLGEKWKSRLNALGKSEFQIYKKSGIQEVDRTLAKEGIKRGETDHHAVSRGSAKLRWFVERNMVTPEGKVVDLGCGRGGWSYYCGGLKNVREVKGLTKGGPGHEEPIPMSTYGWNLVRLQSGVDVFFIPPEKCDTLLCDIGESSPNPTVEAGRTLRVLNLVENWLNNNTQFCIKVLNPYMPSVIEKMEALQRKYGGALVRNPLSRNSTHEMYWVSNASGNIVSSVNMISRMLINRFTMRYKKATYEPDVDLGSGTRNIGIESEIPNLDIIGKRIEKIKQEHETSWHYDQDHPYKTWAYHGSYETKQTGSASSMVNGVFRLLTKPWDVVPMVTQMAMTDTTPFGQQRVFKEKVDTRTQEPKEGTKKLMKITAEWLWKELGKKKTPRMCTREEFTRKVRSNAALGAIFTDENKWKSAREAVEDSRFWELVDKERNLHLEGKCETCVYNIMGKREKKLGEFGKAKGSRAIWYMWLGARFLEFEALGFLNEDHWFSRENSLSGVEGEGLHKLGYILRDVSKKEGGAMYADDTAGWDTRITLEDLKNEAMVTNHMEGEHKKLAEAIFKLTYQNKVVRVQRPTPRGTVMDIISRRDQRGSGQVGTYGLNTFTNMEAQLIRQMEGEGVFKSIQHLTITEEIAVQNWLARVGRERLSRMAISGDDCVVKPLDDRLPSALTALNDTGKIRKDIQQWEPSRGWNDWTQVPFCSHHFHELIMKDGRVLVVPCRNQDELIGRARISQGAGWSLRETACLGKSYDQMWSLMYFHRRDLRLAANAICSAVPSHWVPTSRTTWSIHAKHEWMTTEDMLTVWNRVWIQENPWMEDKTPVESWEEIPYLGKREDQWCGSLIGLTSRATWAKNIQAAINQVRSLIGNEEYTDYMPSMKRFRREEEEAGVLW

[16] = target: Cytochrome P450 2D6 (Homo sapiens, UniProt P10635);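 note: CYP2D6 member of a cytochrome P450 panel assay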
Chain of Cytochrome P450 2D6 (P10635 whole entry): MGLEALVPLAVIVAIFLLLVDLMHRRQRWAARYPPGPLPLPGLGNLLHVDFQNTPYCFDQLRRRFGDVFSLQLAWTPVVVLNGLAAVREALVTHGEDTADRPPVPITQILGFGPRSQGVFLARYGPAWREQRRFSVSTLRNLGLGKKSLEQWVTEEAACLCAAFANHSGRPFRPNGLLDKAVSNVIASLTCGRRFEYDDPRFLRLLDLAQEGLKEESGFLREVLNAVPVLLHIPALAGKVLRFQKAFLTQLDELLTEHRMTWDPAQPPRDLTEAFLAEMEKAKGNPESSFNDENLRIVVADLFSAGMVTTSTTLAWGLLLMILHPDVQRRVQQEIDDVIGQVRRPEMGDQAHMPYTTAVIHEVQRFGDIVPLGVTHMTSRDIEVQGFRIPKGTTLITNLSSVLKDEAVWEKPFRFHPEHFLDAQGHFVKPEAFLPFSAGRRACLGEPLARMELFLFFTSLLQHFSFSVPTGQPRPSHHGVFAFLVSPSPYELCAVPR

[17] = Luminescence Cell-Based Dose Confirmation HTS to Identify Activators of 5'UTR Stem-Loop Driven Alpha-Synuclein mRNA Translation in H4 Neuroglioblastoma Cells. [Related pubchem assays: 1829 (Project Summary), 1814 (Primary HTS)]; format: functional
[18] = Luminescence Cell-Based Dose Response HTS to Identify Activators of Luciferase Translation or Activity in H4 […] Cells. [Related pubchem assays: 1829 (Project Summary), 1814 (Primary HTS)]; format: functional
[19] = system: H4; assay: Luminescence Cell-Based Dose Response HTS to Identify Activators of 5'UTR Stem-Loop Driven Prion Protein mRNA Translation in H4 Neuroglioblastoma Cells. [Related pubchem assays: 1829 (Project Summary), 1814 (Primary HTS)]; format: functional; settings: Homo sapiens
[20] = target: Cytochrome P450 3A4 (Homo sapiens, UniProt P08684);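 note: CYP3A4 tested as one member of a cytochrome P450 panel screen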
[21] = system: Streptococcus sp. 'group A'; assay: growth inhibition of control SK(-) GAS strain, dose response, counter-screen for streptokinase expression inhibitor project, luminescence, kanamycin, BacTiterGlo, confirmation (AID 1900); format: functional, organism-based
[22] = target: T6, Streptokinase A (Streptococcus pyogenes serotype M1, UniProt P10520); assay: S. pyogenes streptokinase expression inhibitors, potency, dose response, plasminogen activation absorbance, OD405 (AID 1914); format: functional, Streptococcus pyogenes M1 GAS;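 note: secreted streptokinase activity via plasminogen activation per viability signal from cell pellet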
T6 sequence (P10520 whole entry): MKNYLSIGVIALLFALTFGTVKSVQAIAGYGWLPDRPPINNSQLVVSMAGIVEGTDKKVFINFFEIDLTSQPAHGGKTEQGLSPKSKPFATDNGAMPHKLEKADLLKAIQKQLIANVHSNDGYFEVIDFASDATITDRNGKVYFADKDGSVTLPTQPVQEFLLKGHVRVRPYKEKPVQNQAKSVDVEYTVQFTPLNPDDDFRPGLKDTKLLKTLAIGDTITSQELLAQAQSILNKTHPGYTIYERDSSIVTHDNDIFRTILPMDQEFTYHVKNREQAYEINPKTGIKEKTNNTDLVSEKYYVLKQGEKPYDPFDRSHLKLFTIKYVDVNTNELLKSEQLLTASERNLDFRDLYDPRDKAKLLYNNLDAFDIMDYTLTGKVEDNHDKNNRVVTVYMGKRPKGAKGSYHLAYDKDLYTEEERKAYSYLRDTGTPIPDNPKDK

[23] = system: Streptococcus; assay: Group A Streptococcus viability loss, dose response, counter-screen for streptokinase expression inhibitor project, luminescence, BacTiterGlo (AID 1915); format: functional, organism-based;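 note: potency for reduction of bacterial viability or growth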
[24] = Luminescence Cell-Based Dose Retest to Confirm Inhibitors of Cancer Stem Cells. [Related pubchem assays (depositor defined):AID2717, AID2721]; format: functional; settings: Homo sapiens
[25] = target: Cytochrome P450 2C19 (Homo sapiens, UniProt P33261); assay: Cytochrome panel assay with activity outcomes. Panel member name: p450-cyp2c19 Compounds with AC50 equal or less than 10 uM are considered active; format: functional; settings: read-out: AC50
Chain of Cytochrome P450 2C19 (P33261 whole entry): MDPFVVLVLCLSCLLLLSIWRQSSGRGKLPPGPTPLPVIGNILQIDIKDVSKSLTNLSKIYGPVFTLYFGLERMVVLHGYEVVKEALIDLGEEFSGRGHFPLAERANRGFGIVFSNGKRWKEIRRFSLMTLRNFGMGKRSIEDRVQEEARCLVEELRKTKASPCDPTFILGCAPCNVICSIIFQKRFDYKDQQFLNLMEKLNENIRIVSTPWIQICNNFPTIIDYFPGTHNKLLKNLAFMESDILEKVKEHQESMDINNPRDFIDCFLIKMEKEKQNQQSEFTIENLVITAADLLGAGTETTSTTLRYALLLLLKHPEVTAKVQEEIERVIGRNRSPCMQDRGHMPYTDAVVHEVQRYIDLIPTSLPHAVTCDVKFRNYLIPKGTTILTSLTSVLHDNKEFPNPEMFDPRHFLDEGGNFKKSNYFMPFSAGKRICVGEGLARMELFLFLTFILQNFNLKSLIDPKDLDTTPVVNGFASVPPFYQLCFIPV

[26] = system: Vero; assay: Vero cell cytotoxicity, cytotoxicity control for flavivirus capping enzyme inhibitors (AID 588742); format: functional; settings: Chlorocebus sabaeus

CCn1c(/C=C/c2c(C)[nH]c3ccccc23)nc2ccccc2c1=O
EC50 [1]: > 300 µM (not active) | EC50 [2]: > 300 µM (inconclusive) | EC50 [3]: 7.1 µM (active) | EC50 [4]: 5.59 µM (active) | EC50 [5]: > 99 µM (inactive) | EC50 [6]: > 99 µM (inactive)

Cc1cccc(OCCNC(=O)c2ccc(Cl)c(S(=O)(=O)NCc3cccnc3)c2)c1
IC50 [7]: > 80 µM (inactive)

Cc1ccc(S(=O)(=O)N(CC(=O)N/N=C\c2cccs2)c2cccc3cccnc23)cc1
EC50 [5]: > 99 µM (inactive) | EC50 [6]: > 99 µM (inactive)

Cc1ccc(-c2nc3ccccn3c2NCc2ccc3c(c2)OCO3)cc1
EC50 [8]: 12.8 µM (active)

O=C(Nc1ccc2c(c1)CCC2)c1cccc(S(=O)(=O)N2CCN(c3ccccc3)CC2)c1
EC50 [8]: 6.08 µM (active)

CC1CCCCC12NC(=O)N(CC(=O)Nc1sc3c(c1C(N)=O)CCC3)C2=O (centres undefined)
IC50 [9]: 3.5 µM (active)

O=C1c2ccccc2C(Nc2ccc(F)c(Cl)c2)N1Cc1ccco1 (centres undefined)
EC50 [8]: 3.88 µM (active)

COc1cc(-c2nnc(SCC3(c4ccccc4)OCCO3)o2)cc(OC)c1OC
AC50 [10]: inconclusive

CCC(Sc1nc2cc3c(cc2c(=O)n1Cc1ccco1)OCO3)C(=O)Nc1cccc(OC)c1 (centres undefined)
EC50 [11]: 4.41 µM (active) | EC50 [12]: 4.17 µM (active) | EC50 [3]: 3.73 µM (active) | EC50 [4]: 3.68 µM (active) | AC50 [13]: 4.47 µM (inconclusive)

CC(C)(C)C1CCc2c(sc(NC(=O)C3CC=CCC3C(=O)O)c2C#N)C1 (centres undefined)
IC50 [14]: 11 µM (active) | IC50 [15]: 39.4 µM (active)

CS(=O)(=O)Nc1cccc(-c2cc(NCc3cccs3)ncn2)c1
AC50 [16]: 20 µM (inconclusive) | AC50 [10]: inconclusive

CN(CCOc1ccc(Cl)cc1)c1ccc(S(=O)(=O)N2CCCCC2)cn1
EC50 [8]: 2.82 µM (active)

Cc1cccc(COCC(Cc2ccccc2)N2CCN(C(=O)c3cc(Cl)cc(Cl)c3)CCC2=O)c1 (centres undefined)
EC50 [8]: 3.04 µM (active)

Cc1nc2ccc(C(=O)OCc3ccccc3Br)cc2nc1C
EC50 [17]: 10.8 µM (active) | EC50 [18]: 66.7 µM (active) | EC50 [19]: 0.281 µM (active) | EC50 [5]: > 99 µM (inactive) | EC50 [6]: > 99 µM (inactive)

NNS(=O)(=O)c1ccc(N2CCCC2=O)c([N+](=O)[O-])c1
EC50 [5]: 82 µM (inactive) | EC50 [6]: > 99 µM (inactive)

COc1cc(N)c(Cl)cc1C(=O)NC1CCN(Cc2ccccc2)CC1 [CLEBOPRIDE]
AC50 [13]: 12.6 µM (inconclusive) | AC50 [20]: 3.16 µM (inconclusive) | AC50 [10]: inconclusive

CCNc1nc(Oc2c(Cl)cccc2Cl)cc(C(F)(F)F)n1
EC50 [21]: 7.68 µM (active) | EC50 [22]: 17.6 µM (active) | EC50 [23]: > 150 µM (not active) | AC50 [24]: 8.17 µM (active) | AC50 [25]: 2 µM (inconclusive) | AC50 [13]: 14.1 µM (inconclusive) | AC50 [10]: inconclusive

Nc1scc2c(C(=O)O)nn(-c3ccccc3)c(=O)c12
IC50 [15]: 45 µM (active)

CC(=O)Nc1ccc(S(=O)(=O)NCCSCc2c(Cl)cccc2Cl)cc1
EC50 [3]: 61.4 µM (active) | EC50 [4]: 149 µM (active) | CC50 [26]: > 40 µM (active)

COc1ccc2c(c1O)-c1c(OC)c(OC)cc3c1[C@H](C2)N(C)CC3 [ISOCORYDINE]
AC50 [13]: 10 µM (inconclusive) | AC50 [10]: inconclusive

CC(=O)Nc1sc(N/N=C/c2ccc(O)cc2)nc1-c1ccc(C)cc1
IC50 [9]: 2.84 µM (active)
